pEC50: −log10 of the molar value.
system: M17_3TAU(P301L) cells; assay: TAU-induced cytotoxicity (LDH) in the neuroblastoma tauopathy model; assay type: cell-based; conditions: Homo sapiens, 168 h, inhibition of TAU-induced toxicity, 7 days retinoic acid differentiation, LDH readout
Procedure, shortened: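 Stably transfected BE-M17 cells expressing human TAU-P301L, seeded in serum-free detection medium, then differentiated with 2.5 μM RA (added in equal volume) for 7 days at 37° C/5% CO2 to induce TAU aggregation. Cytotoxicity = supernatant LDH increase over total LDH; EC50 from dose-dependent inhibition curves.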

Structure (SMILES) | pEC50
O=C(NCc1ccc(F)cc1)N1CC2(CN(Cc3cccnc3F)C2)C1 [Cpd B432] | 6.32
O=C(NC1CCC(F)(F)CC1)N1CC2(CN(Cc3ccc(F)cn3)C2)C1 [Cpd B205] | 6.58
Cn1ccc(CN2CC3(C2)CN(C(=O)CC2CCC(F)(F)CC2)C3)n1 [Cpd B462] | 7.27
Cc1cccnc1CN1CC2(C1)CN(C(=O)c1cc3ccccc3o1)C2 [Cpd B412] | 5.55
Cn1cc(Cl)c(CN2CC3(C2)CN(C(=O)OC2CCC(F)(F)CC2)C3)n1 [Cpd B145] | 8.56
Cc1nc(CN2CC3(C2)CN(C(=O)CC2CCC(F)(F)CC2)C3)c(Cl)s1 [Cpd B117] | 8.42
Cc1nc(CN2CC3(C2)CN(C(=O)C(F)(F)c2ccc(F)cc2)C3)cs1 [Cpd B411] | 5.52
CC(=O)Nc1ccc(CNC2CC3(C2)CC(Nc2nc(Cc4ccc(Cl)cc4)ns2)C3)cc1 (stereo not shown) [Cpd B326, N-(4-((6-(3-(4-chlorobenzyl)-1,2,4-thiadiazol-5-ylamino)spiro[3.3]heptan-2-ylamino)methyl)phenyl) acetamide] | 6.84
Cc1csc(CN2CC3(C2)CN(C(=O)NC2CCC(F)(F)CC2)C3)c1 [Cpd B210] | 7.84
Clc1ccc(Cc2nsc(NC3CC4(CC(NCc5ccc6c(c5)OCO6)C4)C3)n2)cc1 (stereo not shown) [Cpd B320, N-(benzo[d][1,3]dioxol-5-ylmethyl)-N′-(3-(4-chlorobenzyl)-1,2,4-thiadiazol-5-yl) spiro[3.3]heptane-2,6-diamine] | 8.85
O=C(OCC1CCC(F)(F)CC1)N1CC2(CN(Cc3ccc(F)cc3C(F)(F)F)C2)C1 [Cpd B166] | 9.13
O=C(OCC1CCC(F)(F)CC1)N1CC2(CN(Cc3ncccc3C(F)(F)F)C2)C1 [Cpd B163] | 8.44
COc1cccc(CN2CC3(C2)CN(C(=O)NC2CC(F)(F)C2)C3)c1 [Cpd B422] | 6.01
O=C(OC1CCC(F)(F)CC1)N1CC2(CN(Cc3ccccc3C(F)(F)F)C2)C1 [Cpd B147] | 8.49
Cc1nc(CN2CC3(C2)CN(S(=O)(=O)Cc2cccc(C(F)(F)F)c2)C3)cs1 [Cpd B215] | 8.43
O=C(OCC1CCC(F)(F)CC1)N1CC2(CN(Cc3ccc(C(F)(F)F)cc3)C2)C1 [Cpd B164] | 7.72
Cc1cccnc1CN1CC2(C1)CN(C(=O)NCC1CCC(F)(F)CC1)C2 [Cpd B198] | 7.78
Cn1ccnc1CN1CC2(C1)CN(C(=O)Cc1ccc(F)cc1)C2 [Cpd B020, 2-(4-Fluoro-phenyl)-1-[6-(1-methyl-1H-imidazol-2-ylmethyl)-2,6-diaza-spiro[3.3]hept-2-yl]-ethanone] | 6.37
Cn1ncc(Cl)c1CN1CC2(C1)CN(C(=O)OC1CCC(F)(F)CC1)C2 [Cpd B142, 4,4-difluorocyclohexyl 6-((4-chloro-1-methylpyrazol-5-yl)methyl)-2,6-diazaspiro[3.3]heptane-2-carboxylate] | 6.06
O=C(CC1CCC(F)(F)CC1)N1CC2(CN(Cc3ccc(Cl)cc3F)C2)C1 [Cpd B106] | > 9.72
COc1ccc(CCCN2CC3(C2)CN(C(=O)Cc2ccc(Cl)cc2)C3)cc1 [Cpd B059, 2-(4-chlorophenyl)-1-(6-(3-(4-methoxyphenyl)propyl)-2,6-diazaspiro[3.3]heptan-2-yl)ethanone] | 8.91

Structure (SMILES) | pEC50
Cc1ncc(CN2CC3(C2)CN(C(=O)NCc2ccc(F)cc2)C3)s1 [Cpd B417] | 5.77
COc1cccc(CN2CC3(C2)CN(C(=O)Cc2ccccn2)C3)c1 [Cpd B419] | 5.90
O=S(=O)(c1ccc(OC(F)(F)F)cc1)N1CC2(CN(Cc3ccc(F)cc3)C2)C1 [Cpd B217] | 9.34
Cc1cccc(CCN2CC3(C2)CN(C(=O)Cc2ccc(F)cc2)C3)c1 [Cpd B028, 2-(4-Fluoro-phenyl)-1-[6-(2-m-tolyl-ethyl)-2,6-diaza-spiro[3.3]hept-2-yl]-ethanone] | 7.89
COc1cccc(CN2CC3(C2)CN(C(=O)Nc2cccc(OC)c2)C3)c1 [Cpd B420] | 5.92
FC(F)(F)c1cccc(CNC2CC3(C2)CC(Nc2nc(Cc4ccc(Cl)cc4)ns2)C3)c1 (stereo not shown) [Cpd B325, N-(3-(4-chlorobenzyl)-1,2,4-thiadiazol-5-yl)-N′-(3-(trifluoromethyl)benzyl) spiro[3.3]heptane-2,6-diamine] | 7.44
COc1cccc(CN2CC3(C2)CN(C(=O)Oc2ccc(F)cc2)C3)c1 [Cpd B140, 4-fluorophenyl 6-(3-methoxybenzyl)-2,6-diazaspiro[3.3]heptane-2-carboxylate] | 8.82
FC(F)(F)c1cccc(CCNC2CC3(C2)CC(Nc2nc(Cc4ccc(Cl)cc4)ns2)C3)c1 (stereo not shown) [Cpd B336, N-(3-(4-chlorobenzyl)-1,2,4-thiadiazol-5-yl)-N′-(3-(trifluoromethyl)phenethyl) spiro[3.3]heptane-2,6-diamine] | 8.15
CC(c1ccccc1)N1CC2(CN(C(=O)Cc3ccc(F)cc3)C2)C1 (stereo not shown) [Cpd B016, 2-(4-Fluoro-phenyl)-1-[6-(1-phenyl-ethyl)-2,6-diaza-spiro[3.3]hept-2-yl]-ethanone] | 8.26
Cc1cccnc1CN1CC2(C1)CN(C(=O)Cc1cccc(C(F)(F)F)c1)C2 [Cpd B079] | 7.87
COc1cccc(CN2CC3(C2)CN(C(=O)CC2CCCCC2)C3)c1 [Cpd B073] | 8.30
O=C(OC1CCC(F)(F)CC1)N1CC2(CN(Cc3c(F)cccc3C(F)(F)F)C2)C1 [Cpd B148] | 6.40
COc1cccc(CN2CC3(C2)CN(C(=O)NCc2cccc(C(F)(F)F)c2)C3)c1 [Cpd B173] | 7.52
Cc1ccc(CN2CC3(C2)CN(C(=O)NCc2ccc(F)cc2)C3)[nH]1 [Cpd B421] | 6.01
O=C(Cc1ccc(Cl)cc1)N1CC2(CN(CCc3ccccc3Cl)C2)C1 [Cpd B062, 1-(6-(2-chlorophenethyl)-2,6-diazaspiro[3.3]heptan-2-yl)-2-(4-chlorophenyl)ethanone] | 8.97
Cc1cccnc1CN1CC2(C1)CN(C(=O)Cc1ccc(C(F)(F)F)cc1)C2 [Cpd B078] | 7.90
O=C(NCC1CCC(F)(F)CC1)N1CC2(CN(Cc3ncccc3Cl)C2)C1 [Cpd B196] | 7.90
Cc1nc(CN2CC3(C2)CN(C(=O)OCc2ccc(Cl)cc2)C3)cs1 [Cpd B429] | 6.13
Cc1cccnc1CN1CC2(C1)CN(C(=O)Cc1ccc(F)c(C(F)(F)F)c1)C2 [Cpd B077] | 8.43
O=C(NCC1CCC(F)(F)CC1)N1CC2(CN(Cc3ccc(C(F)(F)F)cc3)C2)C1 [Cpd B200] | 7.53
Cc1cccnc1CN1CC2(C1)CN(C(=O)OC1CCCC1)C2 [Cpd B138] | 6.05

Structure (SMILES) | pEC50
Cc1cccnc1CN1CC2(C1)CN(C(=O)OCc1ccc(Cl)cc1)C2 [Cpd B137] | 7.31
COc1ccc(CCN2CC3(C2)CN(C(=O)Cc2ccc(Cl)cc2)C3)cc1 [Cpd B046, 2-(4-chlorophenyl)-1-(6-(4-methoxyphenethyl)-2,6-diazaspiro[3.3]heptan-2-yl)ethanone] | 8.39
CCc1cc(CC(=O)N2CC3(CN(Cc4ccc(F)cc4)C3)C2)ccn1 [Cpd B415] | 5.62
O=C(Cc1ccc(F)cc1)N1CC2(CN(CCc3ccc(F)cc3)C2)C1 [Cpd B027, 2-(4-Fluoro-phenyl)-1-{6-[2-(4-fluoro-phenyl)-ethyl]-2,6-diaza-spiro[3.3]hept-2-yl}-ethanone] | 7.66
Cc1csc(CN2CC3(C2)CN(C(=O)OC2CCC(F)(F)CC2)C3)c1 [Cpd B146] | > 9.72
CC(c1cccc(C(F)(F)F)c1)N1CC2(CN(C(=O)Cc3ccc(Cl)cc3)C2)C1 (stereo not shown) [Cpd B037, 2-(4-chlorophenyl)-1-(6-(1-(3-(trifluoromethyl)phenyl)ethyl)-2,6-diazaspiro[3.3]heptan-2-yl)ethanone] | 8.27
O=C(Cc1ccc(F)cc1)N1CC2(CN(Cc3ccccn3)C2)C1 [Cpd B010, 2-(4-Fluoro-phenyl)-1-(6-pyridin-2-ylmethyl-2,6-diaza-spiro[3.3]hept-2-yl)-ethanone] | 7.32
O=C(Cc1ccc(F)cc1)N1CC2(CN(CCc3cccc(F)c3)C2)C1 [Cpd B024, 2-(4-Fluoro-phenyl)-1-{6-[2-(3-fluoro-phenyl)-ethyl]-2,6-diaza-spiro[3.3]hept-2-yl}-ethanone] | 7.57
Cn1cnc(CN2CC3(C2)CN(C(=O)CC2CCC(F)(F)CC2)C3)c1Cl [Cpd B458] | 7.18
CC(c1ccccc1)N1CC2(CN(C(=O)Cc3ccc(Cl)cc3)C2)C1 (stereo not shown) [Cpd B065, 2-(4-chlorophenyl)-1-(6-(1-phenylethyl)-2,6-diazaspiro[3.3]heptan-2-yl)ethanone] | 8.49
COc1cc(CN2CC3(C2)CN(C(=O)Cc2ccc(Cl)cc2)C3)ccn1 [Cpd B005, 2-(4-chlorophenyl)-1-(6-((2-methoxypyridin-4-yl)methyl)-2,6-diazaspiro[3.3]heptan-2-yl)ethanone] | 6.79
Cn1cc(Cl)c(CN2CC3(C2)CN(C(=O)CC2CCC(F)(F)CC2)C3)n1 [Cpd B120] | 8.37
Cc1nc(CN2CC3(C2)CN(C(=O)NCc2ccc(F)cc2)C3)cs1 [Cpd B418] | 5.88
Clc1ccc(Cc2nsc(NC3CC4(CC(NCc5cc(Cl)ccc5Cl)C4)C3)n2)cc1 (stereo not shown) [Cpd B308, N-(3-(4-chlorobenzyl)-1,2,4-thiadiazol-5-yl)-N′-(2,5-dichlorobenzyl) spiro[3.3]heptane-2,6-diamine] | 8.42
COc1ccccc1CCNC1CC2(C1)CC(Nc1nc(Cc3ccc(Cl)cc3)ns1)C2 (stereo not shown) [Cpd B328, N-(3-(4-chlorobenzyl)-1,2,4-thiadiazol-5-yl)-N′-(2-methoxyphenethyl) spiro[3.3]heptane-2,6-diamine] | 8.70
O=C(CCC1CCCCC1)N1CC2(CN(Cc3ccc(F)cc3)C2)C1 [Cpd B089] | 8.53
Cc1nc(CN2CC3(C2)CN(C(=O)CC2CCC(F)(F)CC2)C3)c[nH]1 [Cpd B125] | 6.15
Clc1ccc(Cc2nsc(NC3CC4(CC(NCc5ccc(Cl)c(Cl)c5)C4)C3)n2)cc1 (stereo not shown) [Cpd B306, N-(3-(4-chlorobenzyl)-1,2,4-thiadiazol-5-yl)-N′-(3,4-dichlorobenzyl) spiro[3.3]heptane-2,6-diamine] | 7.45
Cc1cccnc1CN1CC2(C1)CN(C(=O)NCC1CCCCC1)C2 [Cpd B177] | 8.27
